Results: patent US20100003250A1, “(2-ARYL-7H-PYRROLO[2,3-D]PYRIMIDIN-4-YL)MORPHOLINE COMPOUNDS, THEIR USE AS MTOR KINASE AND PI3 KINASE INHIBITORS, AND THEIR SYNTHESES” (Wyeth, priority 2008, published 2010)

Legend:
Format in all cases: biochemical
[1] = target: PI3Kγ (Homo sapiens, UniProt P48736); experiment: PI3K-gamma fluorescence polarization assay; settings: 20 μM PIP2, 25 μM ATP; read-out: PI3Kγ Median IC50
Experimental: PI3K-alpha and PI3K-gamma Fluorescence Polarization Assay Protocols
The reaction buffer was 20 mM HEPES pH 7.5, 2 mM MgCl2, 0.05% CHAPS, and 0.01% βME (added fresh). The substrate solution was 40 μM PIP2 (diC8, Echelon, Salt Lake City Utah cat # P-4508, 1 mM in water) and 50 μM ATP in the reaction buffer. Nunc 384-well black polypropylene fluorescent plates were used for PI3K assays. The assay is run by putting 9.5 μl of freshly diluted enzyme in the reaction buffer per well, adding 0.5 μl of diluted drug or DMSO, and mixing. Then 10 μl of the substrate solution is added to each well to start the reaction. A final concentration of 20 μM PIP2 and 25 μM ATP in the reaction was used. Reactions were allowed to proceed for 30-60 minutes at room temperature. After 30-60 minutes, 20 μl of a solution of 10 nM TAMRA detector (Red detector probe-Echelon) and 2.5 μM of GST-murineGRP (1.5 mg/ml in 17% glycerol) was added per well to stop the reaction. The resulting solution was mixed well and allowed to stand for 90-110 minutes before reading plate. Assay Plates were read on Perkin-Elmer Envision plate readers with appropriate filters for Tamra [BODIPY-TMRI(1,3,4,5)P4]. Data obtained were used to calculate enzymatic activity and enzyme inhibition by inhibitor compounds. It is important to keep Red probe solutions dark. This procedure is adapted from Echelon Biosciences Inc procedure for their PI3-Kinase fluorescence polarization activity Assay kit Product number K-1100.

[2] = target: PI3Kα (Homo sapiens, UniProt P42336); experiment: PI3K-alpha fluorescence polarization assay; settings: 20 μM PIP2, 25 μM ATP; read-out: PI3Kα Median IC50
[3] = target: T1, mTOR Kinase (FLAG-TOR) (Homo sapiens, UniProt P42345); experiment: mTOR kinase assay, purified enzyme, DELFIA format; settings: 100 μM ATP, 1.25 μM His6-S6K; read-out: mTOR Kinase Median IC50
T1 construct: FLAG

Chain of PI3Kα (P42336 whole entry, species assumed): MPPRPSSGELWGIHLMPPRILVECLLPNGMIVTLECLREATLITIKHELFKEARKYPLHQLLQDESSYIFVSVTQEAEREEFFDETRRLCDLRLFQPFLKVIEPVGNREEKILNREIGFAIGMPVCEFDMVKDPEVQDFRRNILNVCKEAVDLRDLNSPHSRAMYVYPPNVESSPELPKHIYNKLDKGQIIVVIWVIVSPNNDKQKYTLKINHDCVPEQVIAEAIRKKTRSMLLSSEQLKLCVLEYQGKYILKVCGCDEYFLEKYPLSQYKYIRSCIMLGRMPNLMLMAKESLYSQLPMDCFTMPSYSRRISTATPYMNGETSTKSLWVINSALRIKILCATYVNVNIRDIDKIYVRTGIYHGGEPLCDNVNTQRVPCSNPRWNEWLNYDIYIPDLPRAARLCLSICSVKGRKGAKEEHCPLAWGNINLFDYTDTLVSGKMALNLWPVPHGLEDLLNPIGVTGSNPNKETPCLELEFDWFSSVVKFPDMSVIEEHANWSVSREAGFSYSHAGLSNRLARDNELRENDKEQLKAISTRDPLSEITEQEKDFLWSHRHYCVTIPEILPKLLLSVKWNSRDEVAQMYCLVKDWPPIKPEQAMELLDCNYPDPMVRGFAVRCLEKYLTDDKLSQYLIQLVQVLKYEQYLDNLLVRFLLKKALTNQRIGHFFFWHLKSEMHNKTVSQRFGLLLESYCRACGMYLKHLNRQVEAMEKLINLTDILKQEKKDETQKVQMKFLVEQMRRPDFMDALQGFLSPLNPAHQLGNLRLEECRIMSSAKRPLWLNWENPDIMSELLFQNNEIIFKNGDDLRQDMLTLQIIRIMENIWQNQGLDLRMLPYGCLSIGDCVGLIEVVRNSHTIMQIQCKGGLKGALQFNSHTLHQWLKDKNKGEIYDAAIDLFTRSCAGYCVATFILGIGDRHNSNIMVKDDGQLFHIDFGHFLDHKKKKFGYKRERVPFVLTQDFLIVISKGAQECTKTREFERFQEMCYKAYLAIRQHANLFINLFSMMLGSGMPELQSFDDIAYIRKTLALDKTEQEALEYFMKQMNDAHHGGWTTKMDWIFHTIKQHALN
Chain of PI3Kα (P27986 whole entry partner, species assumed): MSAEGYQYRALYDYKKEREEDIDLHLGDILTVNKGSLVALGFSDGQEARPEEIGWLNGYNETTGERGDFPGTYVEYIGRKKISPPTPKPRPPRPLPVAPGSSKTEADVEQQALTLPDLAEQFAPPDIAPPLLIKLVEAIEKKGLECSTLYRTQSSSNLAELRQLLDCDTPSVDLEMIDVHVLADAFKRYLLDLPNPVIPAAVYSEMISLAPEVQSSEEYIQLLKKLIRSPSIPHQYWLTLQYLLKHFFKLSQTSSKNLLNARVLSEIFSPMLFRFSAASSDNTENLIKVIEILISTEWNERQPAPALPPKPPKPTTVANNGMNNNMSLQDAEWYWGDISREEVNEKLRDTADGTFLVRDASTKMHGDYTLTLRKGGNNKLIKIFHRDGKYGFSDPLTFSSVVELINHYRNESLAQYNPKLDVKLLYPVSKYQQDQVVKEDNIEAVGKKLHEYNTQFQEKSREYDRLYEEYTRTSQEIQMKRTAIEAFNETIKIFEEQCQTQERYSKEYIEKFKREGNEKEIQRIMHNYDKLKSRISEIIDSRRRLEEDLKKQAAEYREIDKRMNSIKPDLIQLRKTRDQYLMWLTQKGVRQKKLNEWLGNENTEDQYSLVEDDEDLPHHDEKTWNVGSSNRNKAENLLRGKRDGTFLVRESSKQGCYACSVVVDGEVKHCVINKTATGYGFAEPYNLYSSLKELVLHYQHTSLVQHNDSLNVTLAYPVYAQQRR
Chain of PI3Kγ (P48736 whole entry, species assumed): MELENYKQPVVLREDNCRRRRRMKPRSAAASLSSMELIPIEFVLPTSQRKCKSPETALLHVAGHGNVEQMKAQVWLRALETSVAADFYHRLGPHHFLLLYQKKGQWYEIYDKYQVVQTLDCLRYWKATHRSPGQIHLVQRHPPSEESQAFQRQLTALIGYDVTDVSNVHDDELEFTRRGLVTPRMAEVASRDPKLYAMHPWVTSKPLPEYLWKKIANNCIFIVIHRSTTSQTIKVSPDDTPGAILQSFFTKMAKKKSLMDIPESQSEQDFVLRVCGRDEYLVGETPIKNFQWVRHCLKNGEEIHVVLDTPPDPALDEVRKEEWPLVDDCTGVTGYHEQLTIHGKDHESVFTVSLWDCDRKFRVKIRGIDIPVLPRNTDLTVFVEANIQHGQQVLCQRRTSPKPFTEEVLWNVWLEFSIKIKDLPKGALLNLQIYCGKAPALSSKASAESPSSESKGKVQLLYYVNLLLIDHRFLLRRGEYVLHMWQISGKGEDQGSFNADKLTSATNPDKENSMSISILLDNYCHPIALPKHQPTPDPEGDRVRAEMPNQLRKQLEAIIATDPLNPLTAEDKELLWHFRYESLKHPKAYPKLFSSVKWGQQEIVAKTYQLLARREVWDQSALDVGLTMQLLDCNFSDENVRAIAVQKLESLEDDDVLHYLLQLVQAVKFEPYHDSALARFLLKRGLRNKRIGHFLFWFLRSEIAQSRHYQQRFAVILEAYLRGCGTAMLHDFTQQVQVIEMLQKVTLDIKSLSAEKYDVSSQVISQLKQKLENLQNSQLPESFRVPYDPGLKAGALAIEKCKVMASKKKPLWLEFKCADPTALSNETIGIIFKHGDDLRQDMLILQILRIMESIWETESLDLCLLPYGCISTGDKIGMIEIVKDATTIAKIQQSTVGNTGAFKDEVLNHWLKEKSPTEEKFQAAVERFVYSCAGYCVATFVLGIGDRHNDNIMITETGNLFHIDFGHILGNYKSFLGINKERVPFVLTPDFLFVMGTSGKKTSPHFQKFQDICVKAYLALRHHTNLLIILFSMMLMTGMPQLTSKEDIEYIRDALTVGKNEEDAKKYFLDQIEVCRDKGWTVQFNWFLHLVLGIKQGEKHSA

## OCc1cccc(-c2nc(N3CCOCC3)c3cc[nH]c3n2)c1 [Compound 1, [3-(4-morpholin-4-yl-7H-pyrrolo[2,3-d]pyrimidin-2-yl)phenyl]methanol]
[1]
  IC50: 752 nM

## Oc1cccc(-c2nc(N3CCOCC3)c3cc[nH]c3n2)c1 [Compound 2, 3-(4-morpholin-4-yl-7H-pyrrolo[2,3-d]pyrimidin-2-yl)phenol]
[1]
  IC50: 338 nM

## c1cc(-c2nc(N3CCOCC3)c3cc[nH]c3n2)c2cn[nH]c2c1 [Compound 3, 2-(1H-indazol-4-yl)-4-morpholin-4-yl-7H-pyrrolo[2,3-d]pyrimidine]
[2]
  IC50: 830 nM
[3]
  IC50: 1200 nM
[1]
  IC50: 10800 nM

## O=C(Nc1ccncc1)Nc1ccc(-c2nc(N3CCOCC3)c3cc[nH]c3n2)cc1 [Compound 4, 1-[4-(4-morpholin-4-yl-7H-pyrrolo[2,3-d]pyrimidin-2-yl)phenyl]-3-pyridin-4-ylurea]
[1]
  IC50: 65 nM

## O=C(Nc1ccc(-c2nc(N3CCOCC3)c3cc[nH]c3n2)cc1)Nc1cccnc1 [Compound 5, 1-[4-(4-morpholin-4-yl-7H-pyrrolo[2,3-d]pyrimidin-2-yl)phenyl]-3-pyridin-3-ylurea]
[2]
  IC50: 15 nM
[3]
  IC50: 1.7 nM
[1]
  IC50: 78 nM

## CN(C)CCn1ccc2c(N3CCOCC3)nc(-c3cccc(O)c3)nc21 [Compound 6, 3-{7-[2-(dimethylamino)ethyl]-4-morpholin-4-yl-7H-pyrrolo[2,3-d]pyrimidin-2-yl}phenol]
[3]
  IC50: > 800 nM
[1]
  IC50: 1680 nM

## CN(C)CCn1ccc2c(N3CCOCC3)nc(-c3cccc(CO)c3)nc21 [Compound 7, (3-{7-[2-(dimethylamino)ethyl]-4-morpholin-4-yl-7H-pyrrolo[2,3-d]pyrimidin-2-yl}phenyl)methanol]
[3]
  IC50: > 800 nM
[1]
  IC50: 712 nM

## CN(C)CCn1ccc2c(N3CCOCC3)nc(-c3ccc(N)cc3)nc21 [Compound 8, 4-{7-[2-(dimethylamino)ethyl]-4-morpholin-4-yl-7H-pyrrolo[2,3-d]pyrimidin-2-yl}aniline]
[2]
  IC50: 2980 nM
[3]
  IC50: > 3750 nM
[1]
  IC50: > 10000 nM

## CN(C)CCn1ccc2c(N3CCOCC3)nc(-c3ccc(NC(=O)Nc4cccnc4)cc3)nc21 [Compound 9, 1-(4-{7-[2-(dimethylamino)ethyl]-4-morpholin-4-yl-7H-pyrrolo[2,3-d]pyrimidin-2-yl}phenyl)-3-pyridin-3-ylurea]
[3]
  IC50: 2.95 nM
[1]
  IC50: 102 nM

## CN(C)CCn1cc(C(=O)Nc2cccnc2)c2c(N3CCOCC3)nc(-c3ccc(NC(=O)Nc4cccnc4)cc3)nc21 [Compound 10, 7-[2-(dimethylamino)ethyl]-4-morpholin-4-yl-N-pyridin-3-yl-2-{4-[(pyridin-3-ylcarbamoyl)amino]phenyl}-7H-pyrrolo[2,3-d]pyrimidine-5-carboxamide]
[2]
  IC50: 16 nM
[3]
  IC50: 0.88 nM
[1]
  IC50: 72 nM

## CN(C)CCn1ccc2c(N3CCOCC3)nc(-c3ccc(NC(=O)Nc4ccccn4)cc3)nc21 [Compound 11, 1-(4-{7-[2-(dimethylamino)ethyl]-4-morpholin-4-yl-7H-pyrrolo[2,3-d]pyrimidin-2-yl}phenyl)-3-pyridin-2-ylurea]
[1]
  IC50: 626 nM

## CN(C)CCn1ccc2c(N3CCOCC3)nc(-c3ccc(NC(=O)Nc4ccncc4)cc3)nc21 [Compound 12, 1-(4-{7-[2-(dimethylamino)ethyl]-4-morpholin-4-yl-7H-pyrrolo[2,3-d]pyrimidin-2-yl}phenyl)-3-pyridin-4-ylurea]
[2]
  IC50: 11 nM
[1]
  IC50: 36 nM

## CN(C)CCn1ccc2c(N3CCOCC3)nc(-c3ccc(NC(=O)Nc4ccc(F)cc4)cc3)nc21 [Compound 13, 1-(4-{7-[2-(dimethylamino)ethyl]-4-morpholin-4-yl-7H-pyrrolo[2,3-d]pyrimidin-2-yl}phenyl)-3-(4-fluorophenyl)urea]
[3]
  IC50: 7.75 nM
[1]
  IC50: 176 nM

## CN(C)CCNC(=O)Nc1ccc(-c2nc(N3CCOCC3)c3ccn(CCN(C)C)c3n2)cc1 [Compound 14, 1-[2-(dimethylamino)ethyl]-3-(4-{7-[2-(dimethylamino)ethyl]-4-morpholin-4-yl-7H-pyrrolo[2,3-d]pyrimidin-2-yl}phenyl)urea]
[2]
  IC50: 78 nM
[3]
  IC50: 2150 nM
[1]
  IC50: 554 nM

## CN(C)CCCNC(=O)Nc1ccc(-c2nc(N3CCOCC3)c3ccn(CCN(C)C)c3n2)cc1 [Compound 15, 1-(4-{7-[2-(dimethylamino)ethyl]-4-morpholin-4-yl-7H-pyrrolo[2,3-d]pyrimidin-2-yl}phenyl)-3-[3-(dimethylamino)propyl]urea]
[2]
  IC50: 162 nM
[3]
  IC50: 3400 nM
[1]
  IC50: 4360 nM

## CCNC(=O)Nc1ccc(-c2nc(N3CCOCC3)c3ccn(CCN(C)C)c3n2)cc1 [Compound 16, 1-(4-{7-[2-(dimethylamino)ethyl]-4-morpholin-4-yl-7H-pyrrolo[2,3-d]pyrimidin-2-yl}phenyl)-3-ethylurea]
[3]
  IC50: 30 nM
[1]
  IC50: 538 nM

## CNC(=O)Nc1ccc(-c2nc(N3CCOCC3)c3ccn(CCN(C)C)c3n2)cc1 [Compound 17, 1-(4-{7-[2-(dimethylamino)ethyl]-4-morpholin-4-yl-7H-pyrrolo[2,3-d]pyrimidin-2-yl}phenyl)-3-methylurea]
[3]
  IC50: 33 nM
[1]
  IC50: 813 nM

## COC(Cn1ccc2c(N3CCOCC3)nc(-c3ccc(NC(=O)Nc4ccncc4)cc3)nc21)OC [Compound 21, 1-{4-[7-(2,2-dimethoxyethyl)-4-morpholin-4-yl-7H-pyrrolo[2,3-d]pyrimidin-2-yl]phenyl}-3-pyridin-4-ylurea]
[1]
  IC50: 170 nM

## O=CCn1ccc2c(N3CCOCC3)nc(-c3ccc(NC(=O)Nc4ccncc4)cc3)nc21 [Compound 22, 1-{4-[4-morpholin-4-yl-7-(2-oxoethyl)-7H-pyrrolo[2,3-d]pyrimidin-2-yl]phenyl}-3-pyridin-4-ylurea]
[1]
  IC50: 7 nM

## O=C(Nc1ccncc1)Nc1ccc(-c2nc(N3CCOCC3)c3ccn(CCN4CCCC4)c3n2)cc1 [Compound 23, 1-{4-[4-morpholin-4-yl-7-(2-pyrrolidin-1-ylethyl)-7H-pyrrolo[2,3-d]pyrimidin-2-yl]phenyl}-3-pyridin-4-ylurea]
[1]
  IC50: 370 nM

## O=C(Nc1ccncc1)Nc1ccc(-c2nc(N3CCOCC3)c3ccn(CCN4CCCCC4)c3n2)cc1 [Compound 24, 1-{4-[4-morpholin-4-yl-7-(2-piperidin-1-ylethyl)-7H-pyrrolo[2,3-d]pyrimidin-2-yl]phenyl}-3-pyridin-4-ylurea]
[1]
  IC50: 774 nM

## CN(C)CCNCCn1ccc2c(N3CCOCC3)nc(-c3ccc(NC(=O)Nc4ccncc4)cc3)nc21 [Compound 27, 1-{4-[7-(2-{[2-(dimethylamino)ethyl]amino}ethyl)-4-morpholin-4-yl-7H-pyrrolo[2,3-d]pyrimidin-2-yl]phenyl}-3-pyridin-4-ylurea]
[1]
  IC50: 424 nM

## CN1CCN(CCn2ccc3c(N4CCOCC4)nc(-c4ccc(NC(=O)Nc5ccncc5)cc4)nc32)CC1 [Compound 28, 1-(4-{7-[2-(4-methylpiperazin-1-yl)ethyl]-4-morpholin-4-yl-7H-pyrrolo[2,3-d]pyrimidin-2-yl}phenyl)-3-pyridin-4-ylurea]
[3]
  IC50: 24 nM
[1]
  IC50: 317 nM

## O=C(Nc1ccncc1)Nc1ccc(-c2nc(N3CCOCC3)c3ccn(CCN4CCNCC4)c3n2)cc1 [Compound 29, 1-{4-[4-morpholin-4-yl-7-(2-piperazin-1-ylethyl)-7H-pyrrolo[2,3-d]pyrimidin-2-yl]phenyl}-3-pyridin-4-ylurea]
[1]
  IC50: 36 nM

## O=C(Nc1ccncc1)Nc1ccc(-c2nc(N3CCOCC3)c3ccn(CCO)c3n2)cc1 [Compound 34, 1-{4-[7-(2-hydroxyethyl)-4-morpholin-4-yl-7H-pyrrolo[2,3-d]pyrimidin-2-yl]phenyl}-3-pyridin-4-ylurea]
[2]
  IC50: 4 nM
[1]
  IC50: 40 nM

## O=C(Nc1ccncc1)Nc1ccc(-c2nc(N3CCOCC3)c3ccn(CC(F)(F)F)c3n2)cc1 [Compound 36, 1-{4-[4-morpholin-4-yl-7-(2,2,2-trifluoroethyl)-7H-pyrrolo[2,3-d]pyrimidin-2-yl]phenyl}-3-pyridin-4-ylurea]
[1]
  IC50: 63 nM

## CN(C)CCN(C)C(=O)c1ccc(NC(=O)Nc2ccc(-c3nc(N4CCOCC4)c4ccn(CC(F)(F)F)c4n3)cc2)cc1 [Compound 51, N-[2-(dimethylamino)ethyl]-N-methyl-4-[({4-[4-morpholin-4-yl-7-(2,2,2-trifluoroethyl)-7H-pyrrolo[2,3-d]pyrimidin-2-yl]phenyl}carbamoyl)amino]benzamide]
[3]
  IC50: 0.48 nM
[1]
  IC50: 14 nM

## CN(C)C1CCN(C(=O)c2ccc(NC(=O)Nc3ccc(-c4nc(N5CCOCC5)c5ccn(CC(F)(F)F)c5n4)cc3)cc2)CC1 [Compound 57, 1-(4-{[4-(dimethylamino)piperidin-1-yl]carbonyl}phenyl)-3-{4-[4-morpholin-4-yl-7-(2,2,2-trifluoroethyl)-7H-pyrrolo[2,3-d]pyrimidin-2-yl]phenyl}urea]
[3]
  IC50: 1.7 nM
[1]
  IC50: 27 nM
